Results on 1 compound are retold here after patent US10806726B2, “Methods of using indazole-3-carb oxamides and their use as Wnt/B-catenin signaling pathway inhibitors” (Samumed, LLC, priority 2016, dated 2020).

Assay [1] concerns IL6 production in THP-1 cells. The assay is described as follows: Cytokine Production Assay, LPS-induced IL6 in THP-1 cells. It is filed as cell-based. Conditions: Homo sapiens; THP-1, LPS 500 ng/ml 22 hours, 2 independent assays; read-out: average EC50, inhibition of IL6 production. The method, then:
THP-1 cells were cultured in basal media with 1% FBS for 24 hours before the start of the assay. THP-1 cells were plated at 6×10e^4 cells/well and treated with DMSO (vehicle control) or compound 175 at 10 μM highest test concentration and 2 to 3.5-fold serial dilutions up to 8 concentrations (10, 3.5, 1, 0.5, 0.1, 0.035, 0.01, 0.005 μM). For the TNFα assay, 50 ng/mL of LPS was added to the wells after 2 hours to induce cytokine production, and cells were incubated for 5 hours at 37° C. For the IL6 assay, 500 ng/ml of LPS was added after 2 hours and cells were incubated for 22 hours at 37° C. Plates were spun in a centrifuge for 1 minute at 10,000 rpm and supernatants were collected for ELISA. Supernatants were diluted 1:1 for the TNFα assay and 1:4 for the IL6 assay using the assay medium. ELISA was performed using Human TNF-α ELISA MAX™ Deluxe (Catalog #430204, Biolegend, San Diego, Calif.) and Human IL-6 ELISA MAX™ Deluxe (Catalog #430504, Biolegend, San Diego, Calif.) kits. […] Following several washes to remove unbound avidin-HRP, the TMB substrate was added and the plates were read on the Cytation 3 plate reader (Biotek Inc., Winooski, Vt.) at an absorbance of 450 nm with correction at 570 nm. […] Inhibition profile and EC50 was calculated using Prism 5 (GraphPad Software Inc, La Jolla, Calif., USA). […]

Assay [2] deals with collagenase-induced tendonitis of the Achilles tendon in Sprague Dawley rats. Briefly: Rat Tendinopathy Model (2), collagenase-induced, tendon histology scoring. It is filed as in vivo. To be noted: for tendon histology score: topical once daily 21 days, total score of 20. On the procedure: Fifty (50 μl) of Collagenase Type IA (10 mg/ml in PBS, pH 7.4, approximately 469 units/mg) (Catalog # C5138, Sigma, St. Louis, Mo.) was injected into the Achilles tendon of both ankles near the osteotendinous junction of male Sprague Dawley CD® IGS rats (CRL, Inc.), using insulin syringes with 28.5 G needle.
Rats were divided into 6 groups, with 6 animals per group except 8 animals in Group 2: Group 1 (sham injection), Group 2 (Collagenase-Vehicle with 0.5% Phx), Group 3 (Collagenase-compound 175 3 mg/mL with 0.5% BA), Group 4 (Collagenase-compound 175 10 mg/mL with 0.5% BA), Group 5 (Collagenase-compound 175 3 mg/mL with 0.5% Phx) and Group 6 (Collagenase-compound 175 10 mg/mL with 0.5% Phx). […] All rats were periodically observed for any pain, illnesses or abnormalities. At various time points, blood was collected for plasma in lithium heparin coated tubes by saphenous vein bleeding. For histology, rats were euthanized using isoflurane, tendons were isolated (n=8 tendons/group), fixed in 10% buffered formalin (Catalog # SF93-4, Fisher, Pittsburgh, Pa.) and H & E histology staining was performed at a secondary site (Pacific Pathology, San Diego, Calif.). For biochemical analysis, tendons were isolated (n=4 tendons/group), flash frozen in liquid nitrogen and then stored at −80° C. for subsequent biochemical analysis (not reported). Additionally, one (1) day after collagenase injection, 4 tendons were collected from Group 2 (vehicle) to observe the induction of inflammation (not reported).
There is biological variability in response to collagenase when injected directly into the tendons. […] Therefore, the entire tendon was isolated and placed in a tissue cassette and embedded in paraffin. Five (5) μm sections were generated with an average of 3 sections being fixed on one slide with a minimum of eight (8) slides per tendon and subjected to Hematoxylin & Eosin (H&E) staining. Slides were viewed under an upright light microscope (EVOS AMEX-1200) at a 10× magnification and scored blinded using a 1-4 scoring system of severity: 1-representing severe damage and 4—representing normal tendon, for Linearity of the fiber structure, Shape of the tendon cells, Density of the tendon cells, Inflammation, and Hemorrhage for a total score of twenty (20) using a modification of that described previously (Urdzikova et al., 2014—see Table 3). After the analysis was completed, the scorer was unblinded and scores for each criterion was annotated, totaled and total scores from each section were averaged together to generate a final score for each rat followed by averaging of scores for a given treatment group.
For tendon scoring, each section was analyzed following a 1-4 point scoring system as previously described (Urdzikova et al., 2014) with the exclusion of one variable, Thickness of the epitenon, due to difficulty in discerning the epitenon layer in the histology sections. In this study, a total of 94 sections were scored for Group 1 (sham injection, control group) and between 92-116 sections for Group 2 (Collagenase-Vehicle with 0.5% Phx); Group 3 (Collagenase-compound 175 3 mg/mL with 0.5% BA), Group 4 (Collagenase-compound 175 10 mg/mL with 0.5% BA), Group 5 (Collagenase-compound 175 3 mg/mL with 0.5% Phx) and Group 6 (Collagenase-compound 175 10 mg/mL with 0.5% Phx).

Molecules are shown by their SMILES.

In general, EC50 refers to the midpoint of the concentration-response curve.

For `COc1ccc(NC(=O)c2n[nH]c3ccc(-c4cncc(CN5CCCCC5)c4)cc23)cn1` [compound 175, N-(6-Methoxypyridin-3-yl)-5-(5-(piperidin-1-ylmethyl)pyridin-3-yl)-1H-indazole-3-carboxamide], the EC50 in assay [1] lay in the range of 0.356 to 0.629 µM. Moreover, the “blinded histology scoring of tendon injury and inflammation vs vehicle” value in assay [2] (3 and 10 mg/mL, with either BA or Phx as preservative) is “significantly ameliorated collagenase-induced tendinopathy”. Besides, the tendon histology score in assay [2] (Group 3, 3 mg/mL with 0.5% BA) is 14.5 (±1.15); in assay [2] (Group 4, 10 mg/mL with 0.5% BA) it was 14.8 (±0.968); in assay [2] (Group 5, 3 mg/mL with 0.5% Phx), 15.1 (±0.506); in assay [2] (Group 6, 10 mg/mL with 0.5% Phx), 13.2 (±0.855).
